This assay concerns the target T1, scavenger receptor SRB1 (Homo sapiens, UniProt Q8WTV0).
T1 construct: host or cells: NHEK (normal human epidermal keratinocytes)
T1 sequence (Q8WTV0 1-552): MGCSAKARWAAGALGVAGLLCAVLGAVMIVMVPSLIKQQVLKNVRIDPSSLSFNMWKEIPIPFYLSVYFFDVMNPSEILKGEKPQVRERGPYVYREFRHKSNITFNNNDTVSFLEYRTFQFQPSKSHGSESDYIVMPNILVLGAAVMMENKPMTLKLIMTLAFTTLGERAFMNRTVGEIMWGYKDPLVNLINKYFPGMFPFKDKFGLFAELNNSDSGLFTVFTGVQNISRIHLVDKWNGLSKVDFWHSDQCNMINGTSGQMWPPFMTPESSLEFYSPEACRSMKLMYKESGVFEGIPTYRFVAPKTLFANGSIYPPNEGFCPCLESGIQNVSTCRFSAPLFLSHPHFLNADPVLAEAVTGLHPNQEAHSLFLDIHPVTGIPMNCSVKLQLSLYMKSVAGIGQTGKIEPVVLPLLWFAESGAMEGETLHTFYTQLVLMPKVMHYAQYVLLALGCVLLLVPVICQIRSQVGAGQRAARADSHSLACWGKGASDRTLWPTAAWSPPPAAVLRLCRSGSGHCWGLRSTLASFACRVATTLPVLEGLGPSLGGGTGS
As to the kind of experiment: Proximity ligation assay (PLA) on NHEKs. It counts as cell-based. As to conditions: peptide 2 μM 15 min, then biotinylated U1 dsRNA 2 μg/ml 60 min at 4 °C, spatial correlation <40 nm, n = 3. The procedure:
Figure 4 LL-34 enables U1 dsRNA association with scavenger receptor (SR) SRB1.A and B, NHEKs with gene knockdown for SRs SCARB1, SCARB1, SCARA3, CD36, LRP1, CD163L1, CXCL16, MSR1, MARCO, and OLR1 were cotreated with U1 dsRNA (2.5 μg/ml) and LL-34 (2 μM) for 18 h. Gene expression of IFNB1 and CXCL10 was assessed with quantitative RT-PCR (n = 3). C, proximity ligation assay (PLA) for U1 dsRNA and SR SRB1 binding. NHEKs were treated with LL-34-parent, LL-34-I24A, and LL-34-L31A (2 μM) for 15 min, followed by treatment with biotinylated U1 dsRNA (2 μg/ml) for 60 min at 4 °C. The physical proximity of LL-34 and SRB1 (C), and U1 dsRNA, and SRB1 (D) was determined with fluorescence-based PLA that produces a red fluorescent signal. DAPI (blue) was used as a nuclear counterstain. The scale bar represents 50 μm. Signal counts of C and D from five visual fields were used for PLA signal quantification, as shown in E and F (n = 3). (∗p < 0.05; ∗∗p < 0.01; ∗∗∗p < 0.001; ∗∗∗∗p < 0.0001). […]
The binding of peptide to SRB1 or U1 to SRB1 was assessed by proximity ligation assay (PLA) (Fig. 4, C–E).
PLA was performed as described previously ([30]). […] PLA signals were captured on Olympus BX41 microscope (widefield) with 40× objective and counted by Duolink ImageTool software, version 1.0 (Sigma–Aldrich). Five fields were captured per treatment for quantification of PLA signals with ImageTool software. […]

Residues, ends and D or L forms follow the SMILES beside them.

This is an account of results in paper PMC8214221, “Sequence determinants in the cathelicidin LL-37 that promote inflammation via presentation of RNA to scavenger receptors” (The Journal of Biological Chemistry, 2021).

`CC[C@H](C)[C@H](NC(=O)[C@H](CCCCN)NC(=O)[C@H](CCC(=O)O)NC(=O)[C@H](CCCCN)NC(=O)[C@H](CO)NC(=O)[C@H](CCCCN)NC(=O)[C@H](CCCNC(=N)N)NC(=O)[C@H](Cc1ccccc1)NC(=O)[C@H](Cc1ccccc1)NC(=O)[C@H](CC(=O)O)NC(=O)CNC(=O)[C@H](CC(C)C)NC(=O)[C@@H](N)CC(C)C)C(=O)NCC(=O)N[C@@H](CCCCN)C(=O)N[C@@H](CCC(=O)O)C(=O)N[C@@H](Cc1ccccc1)C(=O)N[C@@H](CCCCN)C(=O)N[C@@H](CCCNC(=N)N)C(=O)N[C@H](C(=O)N[C@H](C(=O)N[C@@H](CCC(N)=O)C(=O)N[C@@H](CCCNC(=N)N)C(=O)N[C@@H](C)C(=O)N[C@@H](CCCCN)C(=O)N[C@@H](CC(=O)O)C(=O)N[C@@H](Cc1ccccc1)C(=O)N[C@@H](CC(C)C)C(=O)N[C@@H](CCCNC(=N)N)C(=O)N[C@@H](CC(N)=O)C(=O)N[C@@H](CC(C)C)C(=O)N[C@H](C(=O)N1CCC[C@H]1C(=O)N[C@@H](CCCNC(=N)N)C(=O)O)C(C)C)C(C)C)[C@@H](C)CC` [LL-34—I24A] (H-LLGDFFRKSKEKIGKEFKRIVQRAKDFLRNLVPR-OH): the “Localization of peptide with SRB1 (PLA)” value was “did not achieve close localization”.
In the case of `CC[C@H](C)[C@H](NC(=O)[C@H](CCCCN)NC(=O)[C@H](CCC(=O)O)NC(=O)[C@H](CCCCN)NC(=O)[C@H](CO)NC(=O)[C@H](CCCCN)NC(=O)[C@H](CCCNC(=N)N)NC(=O)[C@H](Cc1ccccc1)NC(=O)[C@H](Cc1ccccc1)NC(=O)[C@H](CC(=O)O)NC(=O)CNC(=O)[C@H](CC(C)C)NC(=O)[C@@H](N)CC(C)C)C(=O)NCC(=O)N[C@@H](CCCCN)C(=O)N[C@@H](CCC(=O)O)C(=O)N[C@@H](Cc1ccccc1)C(=O)N[C@@H](CCCCN)C(=O)N[C@@H](CCCNC(=N)N)C(=O)N[C@H](C(=O)N[C@H](C(=O)N[C@@H](CCC(N)=O)C(=O)N[C@@H](CCCNC(=N)N)C(=O)N[C@H](C(=O)N[C@@H](CCCCN)C(=O)N[C@@H](CC(=O)O)C(=O)N[C@@H](Cc1ccccc1)C(=O)N[C@@H](CC(C)C)C(=O)N[C@@H](CCCNC(=N)N)C(=O)N[C@@H](CC(N)=O)C(=O)N[C@@H](C)C(=O)N[C@H](C(=O)N1CCC[C@H]1C(=O)N[C@@H](CCCNC(=N)N)C(=O)O)C(C)C)[C@@H](C)CC)C(C)C)[C@@H](C)CC` [LL-34—L31A] (H-LLGDFFRKSKEKIGKEFKRIVQRIKDFLRNAVPR-OH) it was “did not achieve close localization”.
